Measurements from patent US11180462B2, “Microbiocidal oxadiazole derivatives” (SYNGENTA PARTICIPATIONS AG, priority 2015, dated 2021).

Key:
[1] = system: Glomerella lagenarium (Colletotrichum lagenarium); assay: Fungicidal activity against Glomerella lagenarium (Colletotrichum lagenarium) liquid culture / cucumber / preventative (anthracnose); assay type: cell-based; settings: Colletotrichum orbiculare; 20 ppm in the applied formulation; liquid culture (PDB), growth inhibition measured photometrically after 3 to 4 days; compared to untreated control; read-out: disease control
Method in brief: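 Percent activity against the untreated check was derived from photometric growth measurements made 2 to 7 days after conidia in potato dextrose broth were combined with compound at 20 ppm. Cultures were kept dark at 24 °C and 96% humidity.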

[2] = system: Puccinia recondita f. Sp. Tritici; assay: Fungicidal activity against Puccinia recondita f. sp. tritici / wheat / leaf disc curative (brown rust); assay type: in vivo; settings: foliar, 24 h, 200 ppm in the applied formulation, wheat leaf segments, curative (applied 1 day after inoculation), compared to untreated control leaf disks, read-out: disease control
Method in brief: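 Segments of wheat cv. Kanzler were laid on agar and inoculated with a spore suspension of the rust, then held in darkness at 19° C and 75% relative humidity. One day later the water-diluted formulated compound was applied, with incubation continued under a 12 h light/dark cycle.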

[3] = system: Puccinia recondita f. Sp. Tritici; assay: Fungicidal activity against Puccinia recondita f. sp. tritici / wheat / leaf disc preventative (brown rust); assay type: in vivo; settings: foliar, 200 ppm in the applied formulation, wheat leaf segments, preventative, compared to untreated control leaf disks, read-out: disease control
Method in brief: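 200 ppm spray on wheat cv. Kanzler leaf segments; spore inoculation +1 day; 19° C., 75% rh, 12 h/12 h light cycle; single rating of % control vs untreated at 7 to 9 days.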

Phakopsora Pachyrhizi = assay: Fungicidal activity against Phakopsora pachyrhizi / soybean / leaf disc preventative (Asian soybean rust); assay type: in vivo; settings: foliar, 200 ppm in the applied formulation, soybean leaf disks, compared to untreated control leaf disks, read-out: disease control
Method in brief: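 Scored 12 to 14 days post-application as percent control relative to untreated check discs, rust spores were sprayed under the disc one day after compound treatment. Incubation: 20°C, 75% rh, first 24–36 h in darkness, then 12 h daily light; discs kept on water agar.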

COCCN(Cc1ccc(-c2noc(C(F)(F)F)n2)cc1)C(=O)CC(F)(F)F [Compound 1.361, 3,3,3-trifluoro-N-(2-methoxyethyl)-N-[[4-[5-(trifluoromethyl)-1,2,4-oxadiazol-3-yl]phenyl]methyl]-propanamide]
≥ 80%: inhibition of growth at 20 ppm [1] | pest or weed control at 200 ppm [2] | pest or weed control at 200 ppm [3] | pest or weed control at 200 ppm (Phakopsora Pachyrhizi)

C=CCNC(=O)N(Cc1ccc(-c2noc(C(F)(F)F)n2)cc1)OC [Compound 3.20, 3-allyl-1-methoxy-1-[[4-[5-(trifluoromethyl)-1,2,4-oxadiazol-3-yl]phenyl]methyl]urea]
≥ 80%: inhibition of growth at 20 ppm [1] | pest or weed control at 200 ppm [2] | pest or weed control at 200 ppm [3] | pest or weed control at 200 ppm (Phakopsora Pachyrhizi)

CON(Cc1ccc(-c2noc(C(F)(F)F)n2)cc1)C(=O)CC1CCCC1 [Compound 1.8, 2-cyclopentyl-N-methoxy-N-[[4-[5-(trifluoromethyl)-1,2,4-oxadiazol-3-yl]phenyl]methyl]-acetamide]
≥ 80%: inhibition of growth at 20 ppm [1] | pest or weed control at 200 ppm [2] | pest or weed control at 200 ppm [3] | pest or weed control at 200 ppm (Phakopsora Pachyrhizi)

CCON(Cc1ccc(-c2noc(C(F)(F)F)n2)cc1)C(=O)C1CCCO1 (stereo not shown) [Compound 1.626, N-ethoxy-N-[[4-[5-(trifluoromethyl)-1,2,4-oxadiazol-3-yl]phenyl]methyl]-tetrahydrofuran-2-carboxamide]
≥ 80%: inhibition of growth at 20 ppm [1] | pest or weed control at 200 ppm [2] | pest or weed control at 200 ppm [3] | pest or weed control at 200 ppm (Phakopsora Pachyrhizi)

CCCC(=O)N(Cc1ccc(-c2noc(C(F)(F)F)n2)cc1)C1CC1 [Compound 1.97, N-cyclopropyl-N-[[4-[5-(trifluoromethyl)-1,2,4-oxadiazol-3-yl]phenyl]methyl]-butanamide]
≥ 80%: inhibition of growth at 20 ppm [1] | pest or weed control at 200 ppm [2] | pest or weed control at 200 ppm [3] | pest or weed control at 200 ppm (Phakopsora Pachyrhizi)

COCCN(Cc1ccc(-c2noc(C(F)(F)F)n2)cc1)C(=O)C1CC1C (stereo not shown) [Compound 1.341, N-(2-methoxyethyl)-2-methyl-N-[[4-[5-(trifluoromethyl)-1,2,4-oxadiazol-3-yl]phenyl]methyl]-cyclopropane-carboxamide]
≥ 80%: inhibition of growth at 20 ppm [1] | pest or weed control at 200 ppm [2] | pest or weed control at 200 ppm [3] | pest or weed control at 200 ppm (Phakopsora Pachyrhizi)

CCCN(Cc1ccc(-c2noc(C(F)(F)F)n2)cc1)C(C)=O [Compound 1.668, N-propyl-N-[[4-[5-(trifluoromethyl)-1,2,4-oxadiazol-3-yl]phenyl]methyl]-acetamide]
≥ 80%: inhibition of growth at 20 ppm [1] | pest or weed control at 200 ppm [2] | pest or weed control at 200 ppm [3] | pest or weed control at 200 ppm (Phakopsora Pachyrhizi)

CON(Cc1ccc(-c2noc(C(F)(F)F)n2)cc1)C(=O)CC1CC1 [Compound 1.26, 2-cyclopropyl-N-methoxy-N-[[4-[5-(trifluoromethyl)-1,2,4-oxadiazol-3-yl]phenyl]methyl]-acetamide]
≥ 80%: inhibition of growth at 20 ppm [1] | pest or weed control at 200 ppm [2] | pest or weed control at 200 ppm [3] | pest or weed control at 200 ppm (Phakopsora Pachyrhizi)

CCCN(Cc1ccc(-c2noc(C(F)(F)F)n2)cc1)C(=O)C(C)C [Compound 1.651, 2-methyl-N-propyl-N-[[4-[5-(trifluoromethyl)-1,2,4-oxadiazol-3-yl]phenyl]methyl]-propanamide]
≥ 80%: inhibition of growth at 20 ppm [1] | pest or weed control at 200 ppm [2] | pest or weed control at 200 ppm [3] | pest or weed control at 200 ppm (Phakopsora Pachyrhizi)

COC(C)C(=O)N(Cc1ccc(-c2noc(C(F)(F)F)n2)cc1)C(C)C (stereo not shown) [Compound 1.685, N-isopropyl-2-methoxy-N-[[4-[5-(trifluoromethyl)-1,2,4-oxadiazol-3-yl]phenyl]methyl]-propanamide]
≥ 80%: inhibition of growth at 20 ppm [1] | pest or weed control at 200 ppm [2] | pest or weed control at 200 ppm [3] | pest or weed control at 200 ppm (Phakopsora Pachyrhizi)
